System: fluorescently-labeled cell wall material
Test: EnzChek Lysozyme Assay of covalently grafted lysozyme
Format: biochemical
Settings: one hour at 37 °C, compared with lysozyme standard dilution series (Figure 5)
Protocol: After covalently grafting lysozyme to a small block of carboxy monolith polymeric matrix, the sample was placed into a solution of fluorescently-labeled cell wall material (EnzChek® Lysozyme Assay Kit) and incubated for one hour at 37 °C in a plate reader, along with a lysozyme standard dilution series.
A fresh solution of 160 mg/mL EDAC stock in dry DMSO was prepared. A lysozyme mix was prepared from 20 µL of a 10 mg/mL solution of lysozyme in 1x PBS, 28 µL of a 200 mM MES solution at pH 7.0, and 15 µL water.
7 µL 160 mg/mL EDAC was spotted onto a single 20 mg disc formed from monolith material, (1:2:1 TEGDMA:EGDMA:HEMA plus 2.0% MAA). The prepared lysozyme mix (63 µL) was then added and the sample incubated at room temperature for 1 h. A glycine solution (10 µl; 30 mg/mL solution in 100 mM MES solution at pH 7.0) was then added and the sample incubated for 15 min at room temperature. The disc was then rinsed in water and stored at 4 °C until use.
To test the activity of the immobilized enzyme, a lysozyme-coupled disc and an untreated control disc were each cut into equal 1/8 size pie-shaped segments. Two pieces of each were then added to two wells of a microwell plate and lysozyme substrate was added. […] Fluorescence was read at regular intervals to determine the extent of carbohydrate breakdown and consequent lysozyme activity.

lysozyme chip: Lysozyme covalently grafted with EDAC to carboxy monolith disc (1:2:1 TEGDMA:EGDMA:HEMA plus 2.0% MAA)
final fluorescence signal intensity: greater than the highest standard

From patent publication EP3221371B1, “MONOLITHS” (Monolythix, Inc., priority 2014, dated 2016)
